Test results taken from paper PMC13288994, “Identification and characterization of novel chikungunya virus polymerase inhibitors” (Journal of Virology, 2026).
Where two headings read alike, the source gives them in different places.

What was measured:
[1] = tested on: CHIKV-nLuc (181/25 strain); experiment: microbe, parasite or virus in culture; assay type: cell-based, Chikungunya virus; conditions: Chikungunya virus, 384-well format, read 20 h after infection, read-out: Normalized percent inhibition in primary screen
[2] = tested on: VSV-nLuc; experiment: microbe, parasite or virus in culture; assay type: cell-based; conditions: Vesicular stomatitis virus, Vero C1008, read-out: Antiviral potency (EC50 [µM]) VSV
[3] = tested on: SINV-GLuc; experiment: microbe, parasite or virus in culture; assay type: cell-based; conditions: Sindbis virus, Vero C1008; VeroE6 cells; read-out: Antiviral potency (EC50 [µM]) SINV
[4] = tested on: HPIV3-nLuc; experiment: microbe, parasite or virus in culture; assay type: cell-based; conditions: Human respirovirus 3, Vero C1008; VeroE6 cells; read-out: Antiviral potency (EC50 [µM]) HPIV3
[5] = tested on: SARS-CoV-2-nLuc; experiment: microbe, parasite or virus in culture; assay type: cell-based; conditions: Severe acute respiratory syndrome coronavirus 2; VeroE6-TMPRSS2 cells; read-out: Antiviral potency (EC50 [µM]) SARS-CoV-2
[6] = tested on: RSV A2-L19F; experiment: microbe, parasite or virus in culture; assay type: cell-based; conditions: human respiratory syncytial virus; Hep-2 cells; read-out: Antiviral potency (EC50 [µM]) RSV
[7] = in vitro; conditions: human
[8] = in vitro; conditions: African green monkey
[9] = tested on: RRV; experiment: microbe, parasite or virus in culture; assay type: cell-based, Ross River virus; conditions: Ross River virus, U2OS, read-out: EC50 virus production, RRV
[10] = molecular target: T1, MAYV trans-replicase (P1234) (Mayaro virus, UniProt Q8QZ73); experiment: Trans-replicase assay, MAYV; assay type: cell-based; conditions: 100 µM, U-2 OS, 20 h
T1 construct: expression of the P1234 polyprotein drives replication of a reporter RNA template; expressed in transfected cells; host or cells: U-2 OS
Protocol: (§1) U-2 OS cells were seeded at 75,000 cells per well in 24-well plates and cultured for 24 h. Cells were then co-transfected with 250 ng of plasmid encoding template RNA and 250 ng of plasmid encoding P1234 WT ([72], [73]), using Lipofectamine LTX with PLUS reagent (ThermoFisher Scientific) following the manufacturer’s instructions. After 4 h of post-transfection, medium containing 100 µM of compounds or DMSO was added to the cells. Cells were then incubated for 20 h, lysed, and GLuc activity was quantified using the Dual-Luciferase Reporter Assay System (Promega). Luciferase activities were normalized to those of the DMSO-treated controls.

[11] = tested on: SINV; experiment: microbe, parasite or virus in culture; assay type: cell-based, Sindbis virus; conditions: Sindbis virus, U2OS, read-out: EC50 virus production, SINV
[12] = molecular target: T2, BFV trans-replicase (P1234) (Barmah forest virus, UniProt P87515); experiment: Trans-replicase assay, BFV; assay type: cell-based; conditions: 100 µM, U-2 OS, 20 h
T2 construct: expression of the P1234 polyprotein drives replication of a reporter RNA template; expressed in transfected cells; host or cells: U-2 OS
Protocol: as §1

[13] = Cytotoxicity assay (PrestoBlue, 24 h) in U-2 OS cells; assay type: cell-based, Human; conditions: human, U-2 OS cells
[14] = tested on: CHIKV 181/25; experiment: Virus yield dose-response in U-2 OS cells, CHIKV; assay type: cell-based, Chikungunya virus; conditions: Chikungunya virus, U2OS
[15] = tested on: ONNV; experiment: organism not typed; assay type: cell-based, o'nyong-nyong virus; conditions: U2OS, read-out: EC50 virus production, ONNV
[16] = molecular target: VEEV trans-replicase (P1234) (Venezuelan equine encephalitis virus, UniProt P36328); assay type: cell-based
Sequence of VEEV trans-replicase (P1234) (P36328 1-2492 limits assumed): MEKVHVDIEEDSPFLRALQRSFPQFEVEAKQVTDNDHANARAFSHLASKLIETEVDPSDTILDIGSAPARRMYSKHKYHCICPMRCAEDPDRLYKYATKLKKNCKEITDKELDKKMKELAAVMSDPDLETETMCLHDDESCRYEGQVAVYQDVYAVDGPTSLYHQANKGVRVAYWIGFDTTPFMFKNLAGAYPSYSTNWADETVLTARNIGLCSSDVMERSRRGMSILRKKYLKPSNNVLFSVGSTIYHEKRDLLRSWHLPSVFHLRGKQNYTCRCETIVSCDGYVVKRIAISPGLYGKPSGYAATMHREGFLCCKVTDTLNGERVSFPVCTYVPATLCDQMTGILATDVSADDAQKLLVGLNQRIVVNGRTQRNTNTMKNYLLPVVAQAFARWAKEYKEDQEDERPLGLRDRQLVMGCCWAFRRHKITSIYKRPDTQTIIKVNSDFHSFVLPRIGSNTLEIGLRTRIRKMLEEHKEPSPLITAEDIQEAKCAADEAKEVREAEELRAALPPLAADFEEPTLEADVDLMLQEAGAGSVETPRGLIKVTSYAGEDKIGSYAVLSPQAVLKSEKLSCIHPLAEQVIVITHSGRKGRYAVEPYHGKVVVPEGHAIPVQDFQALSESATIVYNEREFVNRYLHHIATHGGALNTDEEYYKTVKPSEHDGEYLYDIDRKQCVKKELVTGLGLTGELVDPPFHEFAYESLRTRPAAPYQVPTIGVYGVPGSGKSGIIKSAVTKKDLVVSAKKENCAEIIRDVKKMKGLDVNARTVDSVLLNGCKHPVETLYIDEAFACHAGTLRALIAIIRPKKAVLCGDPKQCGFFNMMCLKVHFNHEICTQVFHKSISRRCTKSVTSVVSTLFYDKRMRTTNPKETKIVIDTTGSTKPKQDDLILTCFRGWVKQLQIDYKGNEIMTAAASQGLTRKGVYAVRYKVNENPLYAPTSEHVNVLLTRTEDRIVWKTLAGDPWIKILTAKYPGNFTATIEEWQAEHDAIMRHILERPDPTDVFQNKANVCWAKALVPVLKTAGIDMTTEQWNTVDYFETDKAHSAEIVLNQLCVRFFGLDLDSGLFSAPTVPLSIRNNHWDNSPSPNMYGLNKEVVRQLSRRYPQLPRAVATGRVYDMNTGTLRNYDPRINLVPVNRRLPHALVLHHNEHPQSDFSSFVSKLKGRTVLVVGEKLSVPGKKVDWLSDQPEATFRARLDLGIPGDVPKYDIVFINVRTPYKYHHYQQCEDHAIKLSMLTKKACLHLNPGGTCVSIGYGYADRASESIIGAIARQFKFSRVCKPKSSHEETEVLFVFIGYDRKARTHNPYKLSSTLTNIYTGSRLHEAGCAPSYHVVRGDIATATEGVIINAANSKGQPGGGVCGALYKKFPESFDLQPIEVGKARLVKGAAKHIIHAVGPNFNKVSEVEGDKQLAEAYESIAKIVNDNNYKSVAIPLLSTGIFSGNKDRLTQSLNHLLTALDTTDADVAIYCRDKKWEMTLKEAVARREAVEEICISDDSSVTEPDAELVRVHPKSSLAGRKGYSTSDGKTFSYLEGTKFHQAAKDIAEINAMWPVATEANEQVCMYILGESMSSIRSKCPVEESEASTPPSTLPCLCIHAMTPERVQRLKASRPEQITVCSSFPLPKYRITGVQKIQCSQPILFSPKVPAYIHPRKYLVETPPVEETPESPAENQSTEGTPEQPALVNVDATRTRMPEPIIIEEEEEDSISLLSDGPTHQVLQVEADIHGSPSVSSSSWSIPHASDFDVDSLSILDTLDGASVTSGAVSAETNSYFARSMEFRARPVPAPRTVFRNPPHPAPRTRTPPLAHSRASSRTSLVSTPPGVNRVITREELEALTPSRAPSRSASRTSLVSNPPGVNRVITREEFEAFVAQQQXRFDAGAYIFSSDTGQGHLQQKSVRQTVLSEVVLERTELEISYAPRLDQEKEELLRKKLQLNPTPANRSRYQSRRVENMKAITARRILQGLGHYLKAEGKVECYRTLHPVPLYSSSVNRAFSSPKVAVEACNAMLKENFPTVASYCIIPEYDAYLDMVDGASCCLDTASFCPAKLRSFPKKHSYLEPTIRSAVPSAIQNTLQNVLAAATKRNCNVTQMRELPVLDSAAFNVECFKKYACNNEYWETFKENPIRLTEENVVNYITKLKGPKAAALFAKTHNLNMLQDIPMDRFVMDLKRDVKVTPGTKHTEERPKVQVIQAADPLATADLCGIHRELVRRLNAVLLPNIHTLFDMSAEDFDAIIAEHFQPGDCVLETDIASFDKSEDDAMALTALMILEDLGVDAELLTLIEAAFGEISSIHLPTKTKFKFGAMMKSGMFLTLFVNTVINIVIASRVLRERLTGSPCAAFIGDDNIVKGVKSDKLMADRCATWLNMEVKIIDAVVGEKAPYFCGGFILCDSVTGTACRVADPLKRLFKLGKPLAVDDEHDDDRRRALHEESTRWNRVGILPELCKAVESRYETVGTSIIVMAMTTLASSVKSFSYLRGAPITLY
Sequence of VEEV trans-replicase (P1234) (P36328 1-535 partner limits assumed): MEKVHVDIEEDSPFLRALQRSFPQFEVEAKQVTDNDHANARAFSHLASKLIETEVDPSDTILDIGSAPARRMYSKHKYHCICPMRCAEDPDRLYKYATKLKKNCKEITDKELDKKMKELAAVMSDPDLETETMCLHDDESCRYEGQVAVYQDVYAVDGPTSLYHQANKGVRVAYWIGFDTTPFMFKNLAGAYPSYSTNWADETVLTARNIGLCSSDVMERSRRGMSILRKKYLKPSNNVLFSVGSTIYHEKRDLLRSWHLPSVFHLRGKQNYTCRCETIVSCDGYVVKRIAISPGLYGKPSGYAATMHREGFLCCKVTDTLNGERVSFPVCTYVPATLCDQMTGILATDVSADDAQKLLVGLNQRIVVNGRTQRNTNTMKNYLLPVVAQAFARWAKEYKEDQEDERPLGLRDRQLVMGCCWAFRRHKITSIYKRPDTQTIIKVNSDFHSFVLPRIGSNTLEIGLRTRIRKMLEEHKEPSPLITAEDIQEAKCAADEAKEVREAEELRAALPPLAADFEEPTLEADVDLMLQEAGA
Sequence of VEEV trans-replicase (P1234) (P36328 536-1329 partner limits assumed): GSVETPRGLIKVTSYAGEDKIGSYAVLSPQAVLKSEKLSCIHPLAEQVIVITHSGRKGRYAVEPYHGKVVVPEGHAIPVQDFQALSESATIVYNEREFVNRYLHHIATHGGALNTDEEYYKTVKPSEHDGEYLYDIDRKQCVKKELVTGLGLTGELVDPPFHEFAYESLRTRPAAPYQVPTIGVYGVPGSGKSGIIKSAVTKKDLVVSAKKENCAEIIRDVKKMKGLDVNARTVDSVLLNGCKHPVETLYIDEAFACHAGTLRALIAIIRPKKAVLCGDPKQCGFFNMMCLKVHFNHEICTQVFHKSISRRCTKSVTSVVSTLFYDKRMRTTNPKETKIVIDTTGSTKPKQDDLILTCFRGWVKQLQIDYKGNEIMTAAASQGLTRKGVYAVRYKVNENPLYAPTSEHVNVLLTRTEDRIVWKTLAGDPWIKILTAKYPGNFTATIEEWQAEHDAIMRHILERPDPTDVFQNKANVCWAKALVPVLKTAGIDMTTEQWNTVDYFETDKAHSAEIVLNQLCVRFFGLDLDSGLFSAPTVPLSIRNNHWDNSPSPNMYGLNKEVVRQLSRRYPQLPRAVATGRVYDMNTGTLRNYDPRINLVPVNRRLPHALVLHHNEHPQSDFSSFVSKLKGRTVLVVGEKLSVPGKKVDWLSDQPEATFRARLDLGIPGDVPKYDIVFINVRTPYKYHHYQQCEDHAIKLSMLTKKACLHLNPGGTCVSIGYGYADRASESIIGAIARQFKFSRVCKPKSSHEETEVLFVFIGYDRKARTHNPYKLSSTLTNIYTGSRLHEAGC

[17] = tested on: CHIKV-nLuc; experiment: microbe, parasite or virus in culture; assay type: cell-based, Chikungunya virus
[18] = molecular target: T3, SINV trans-replicase (P1234) (Sindbis virus, UniProt P03317); experiment: Trans-replicase assay, SINV; assay type: cell-based; conditions: 100 µM, U-2 OS, 20 h
T3 construct: expression of the P1234 polyprotein drives replication of a reporter RNA template; expressed in transfected cells; host or cells: U-2 OS
Protocol: as §1

[19] = tested on: CHIKV-nLuc; assay type: cell-based, Chikungunya virus; conditions: 20 µM, U-2 OS, reporter read at 24 h
[20] = tested on: CHIKV replicon; experiment: microbe, parasite or virus in culture; conditions: Chikungunya virus, U2OS, read-out: Antiviral potency (EC50 [µM]) CHKV replicon
[21] = tested on: SFV; experiment: microbe, parasite or virus in culture; assay type: cell-based, Semliki Forest virus; conditions: Semliki Forest virus, U2OS, read-out: EC50 virus production, SFV
[22] = molecular target: T4, RRV trans-replicase (P1234) (Ross river virus, UniProt P13887); experiment: Trans-replicase assay, RRV; assay type: cell-based; conditions: 100 µM, U-2 OS, 20 h
T4 construct: expression of the P1234 polyprotein drives replication of a reporter RNA template; expressed in transfected cells; host or cells: U-2 OS
Protocol: as §1

[23] = tested on: MAYV; experiment: microbe, parasite or virus in culture; assay type: cell-based, Mayaro virus; conditions: Mayaro virus, U2OS, read-out: EC50 virus production, MAYV
[24] = molecular target: T5, CHIKV trans-replicase (P1234) (Chikungunya virus, UniProt Q8JUX6); experiment: Trans-replicase assay, CHIKV; assay type: cell-based; conditions: 100 µM, U-2 OS, 20 h
T5 construct: expression of the P1234 polyprotein drives replication of a reporter RNA template; expressed in transfected cells; host or cells: U-2 OS
Protocol: as §1

[25] = tested on: VEEV-TC83-nLuc; experiment: microbe, parasite or virus in culture; assay type: cell-based; conditions: Venezuelan equine encephalitis virus, Vero C1008, read-out: Antiviral potency (EC50 [µM]) VEEV
[26] = molecular target: T6, SFV trans-replicase (P1234) (Semliki forest virus, UniProt P08411); experiment: Trans-replicase assay, SFV; assay type: cell-based; conditions: 100 µM, U-2 OS, 20 h
T6 construct: expression of the P1234 polyprotein drives replication of a reporter RNA template; expressed in transfected cells; host or cells: U-2 OS
Protocol: as §1

[27] = molecular target: EEEV trans-replicase (P1234) (Eastern equine encephalitis virus, UniProt Q306W6); assay type: cell-based
[28] = tested on: CHIKV; experiment: Selection for viral resistance by serial passage in U-2 OS cells, whole-genome sequencing; assay type: cell-based, Chikungunya virus; conditions: passage 1, MOI 1 FFU/cell, 16 h
[29] = Cytotoxicity assay (PrestoBlue, 24 h) in NHDF cells; assay type: cell-based, Human; conditions: human, NHDF cells
Protocol: NHDF cells were seeded at 10,000 cells per well in 24-well plates and cultured for 24 h. Cells were then treated with threefold serial dilutions of compounds starting at 500 µM and incubated for 24 h. DMSO was included as a negative control for normalization. Following treatment, cells were incubated with PrestoBlue reagent (ThermoFisher Scientific) for 1 h at 37°C, and fluorescence was measured using a PerkinElmer Victor X5 multilabel plate reader. The CC50 values were determined by normalized non-linear regression with a variable slope model in Prism (GraphPad).

[30] = molecular target: T7, ONNV trans-replicase (P1234) (O'nyong-nyong virus, UniProt P13886); experiment: Trans-replicase assay, ONNV; assay type: cell-based; conditions: 100 µM, U-2 OS, 20 h
T7 construct: expression of the P1234 polyprotein drives replication of a reporter RNA template; expressed in transfected cells; host or cells: U-2 OS
Protocol: as §1

[31] = tested on: CHIKV-nLuc; experiment: microbe, parasite or virus in culture; assay type: cell-based, Chikungunya virus; conditions: Chikungunya virus, U2OS; MOI 0.1 FFU/cell, 24 hpi, in-house synthesized compound; read-out: EC50 CHIKV-nLuc, U-2 OS

CC(C)(C)c1ccc(C(=O)On2c(-c3ccccc3F)nc3ccccc3c2=O)cc1 [GAP-1000864]
inhibition at 5 µM [1]: 91% | EC50 [2]: > 20 µM | EC50 [3]: > 20 µM | EC50 [4]: > 20 µM | EC50 [5]: > 20 µM | EC50 [6]: > 10 µM | CC50 [7]: > 20 µM | CC50 [8]: > 20 µM

O=C(CN1C(=O)CNC1=O)NCc1n[nH]c2c1CCCCC2 [GAP-1173149, 2-(2,5-dioxoimidazolidin-1-yl)-N-(1,4,5,6,7,8-hexahydrocyclohepta[d]pyrazol-3-ylmethyl)acetamide]
EC50 [9]: 10 ± 0.64 µM | Effect on RNA replication (GLuc) in trans-replicase assay, MAYV [10]: no significant effect | inhibition at 5 µM [1]: 88.7% | EC50 [2]: > 100 µM | EC50 [11]: > 100 µM | Effect on RNA replication (GLuc) in trans-replicase assay, BFV [12]: effectively inhibited | CC50 at 24 h [13]: > 500 µM | EC50 [3]: > 100 µM | EC50 ([14]; MOI 0.1, supernatant 24 hpi titered by FFA (Fig. 5), read-out: EC50 virus production, CHIKV): 10.2 ± 0.95 µM | EC50 ([14]; resistance study (Fig. 7), read-out: EC50 virus production, CHIKV WT): 9.15 ± 1.62 µM | EC50 [15]: 5.22 ± 1.11 µM | Effect on RNA replication (GLuc) in trans-replicase assay, VEEV [16]: did not show significant VEEV inhibition | EC50 ([17]; Chikungunya virus, NHDF, MOI 0.1 FFU/cell, 24 hpi, in-house synthesized compound): 11.6 µM | selectivity index (SI = CC50/EC50) ([17]; NHDF cells): > 43 | Effect on RNA replication (GLuc) in trans-replicase assay, SINV [18]: no significant effect | Time-of-addition profile (stage of replication targeted) [19]: act on a stage after viral entry | EC50 [20]: 5.3 µM | EC50 [21]: > 100 µM | EC50 [4]: > 100 µM | EC50 [5]: > 100 µM | Effect on RNA replication (GLuc) in trans-replicase assay, RRV [22]: suppressed replication | EC50 [23]: > 100 µM | EC50 [6]: > 10 µM | Effect on RNA replication (GLuc) in trans-replicase assay, CHIKV [24]: suppressed replication | CC50 [7]: > 100 µM | EC50 [25]: 52.3 µM | Effect on RNA replication (GLuc) in trans-replicase assay, SFV [26]: no significant effect | Effect on RNA replication (GLuc) in trans-replicase assay, EEEV [27]: effectively inhibited | Reduction of virus titers at P1 compared with DMSO-treated controls [28]: 1 log | CC50 [8]: > 100 µM | CC50 at 24 h [29]: > 500 µM | Effect on RNA replication (GLuc) in trans-replicase assay, ONNV [30]: suppressed replication | EC50 [31]: 13.6 ± 0.16 µM

Cc1ccc(NC(=O)c2oc3ccccc3c2NC(=O)c2nc(S(C)(=O)=O)ncc2Cl)cc1 [GAP-1027276]
inhibition at 5 µM [1]: 98.2% | EC50 [2]: > 20 µM | EC50 [3]: > 20 µM | EC50 [4]: > 20 µM | EC50 [5]: > 20 µM | EC50 [6]: > 10 µM | CC50 [7]: 20 µM | CC50 [8]: > 20 µM

CCNc1nc(C)cc(N2CCN(C(=O)c3ccccc3Br)CC2)n1 [GAP-1354666]
inhibition at 5 µM [1]: 82.5%

CCN1CCc2nc3sc(C(=O)c4ccccc4)c(C)c3cc2C1 [GAP-1022776]
inhibition at 5 µM [1]: 85.7% | EC50 [2]: > 20 µM | EC50 [3]: > 20 µM | EC50 [4]: > 20 µM | EC50 [5]: > 20 µM | EC50 [6]: > 10 µM | CC50 [7]: 19.2 µM | CC50 [8]: 25.2 µM

CCNc1nc(C)cc(N2CCN(C(=O)c3ccccc3Cl)CC2)n1 [GAP-1358555]
inhibition at 5 µM [1]: 85.8%

CCNc1cc(C)nc(N2CCN(C(=O)c3cccc4ccccc34)CC2)n1 [GAP-1066658]
inhibition at 5 µM [1]: 95.4% | EC50 [2]: 60.9 µM | EC50 [3]: > 100 µM | EC50 [20]: 0.61 µM | EC50 [4]: ~100 µM | EC50 [5]: ~100 µM | EC50 [6]: > 100 µM | CC50 [7]: 61.5 µM | EC50 [25]: 75.8 µM | CC50 [8]: 88.5 µM

CCNc1nc(C)cc(N2CCN(C(=O)c3cc(Cl)ccc3OC)CC2)n1 [GAP-1350926]
inhibition at 5 µM [1]: 82.1%

Cn1nc(CN(C(=O)c2ccc(F)cc2)c2ccccc2)c2c1CCN(S(=O)(=O)Cc1ccccc1F)C2 [GAP-1081237]
inhibition at 5 µM [1]: 80.2% | EC50 [2]: 65.2 µM | EC50 [3]: 65.7 µM | EC50 [20]: 12.4 µM | EC50 [4]: 64.9 µM | EC50 [5]: > 100 µM | EC50 [6]: > 10 µM | CC50 [7]: > 100 µM | EC50 [25]: 10 µM | CC50 [8]: > 100 µM

CCS(=O)(=O)c1ncc(Cl)c(C(=O)Nc2nnc(C(C)C)s2)n1 [GAP-1027282]
inhibition at 5 µM [1]: 97.2% | EC50 [2]: > 20 µM | EC50 [3]: > 20 µM | EC50 [4]: > 20 µM | EC50 [5]: > 20 µM | EC50 [6]: > 10 µM | CC50 [7]: 16.7 µM | CC50 [8]: > 20 µM

O=C(CSc1c2c(nc3cc(Cl)ccc13)CCCC2)Nc1ccc2c(c1)OCCO2 [GAP-1022901]
inhibition at 5 µM [1]: 82.1% | EC50 [2]: > 20 µM | EC50 [3]: > 20 µM | EC50 [4]: > 20 µM | EC50 [5]: > 20 µM | EC50 [6]: > 10 µM | CC50 [7]: > 20 µM | CC50 [8]: > 20 µM

CCNc1nc(C)cc(N2CCN(C(=O)c3ccc(F)cc3Cl)CC2)n1 [GAP-1358964]
inhibition at 5 µM [1]: 91.6%
